Laboratory results from PubChem BioAssay AID1963447 (Molecular Pharmacology Branch, DTP, NCI, 2024).

Tested on: 885512-296-R-J2-PDC complex spheroid growth, % test/control
Assay: Anticancer human tumor 885512-296-R-J2-PDC patient-derived breast carcinoma cell line growth inhibition [Asc]
Details: for IC50: curve of first compound; for viability, T/C: stronger effect = lower value
Procedure, shortened: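 Stromal components (HUVEC and hMSC) are co-assembled with the cancer cells into multicellular spheroids. Drugs are then added singly or paired, at concentrations falling by half-log increments from a clinically achievable maximum, capped at 10 microM without known Cmax.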

[1] = second compound 0.1 µM, first compound 0.00316 µM
[2] = second compound 0.1 µM, first compound 0.01 µM
[3] = second compound 0.1 µM, first compound 0.0316 µM
[4] = second compound 0.1 µM, first compound 0.1 µM
[5] = second compound 0.316 µM, first compound 0.00316 µM
[6] = second compound 0.316 µM, first compound 0.01 µM
[7] = second compound 0.316 µM, first compound 0.0316 µM
[8] = second compound 0.316 µM, first compound 0.1 µM
[9] = second compound 1 µM, first compound 0.00316 µM
[10] = second compound 1 µM, first compound 0.01 µM
[11] = second compound 1 µM, first compound 0.0316 µM
[12] = second compound 1 µM, first compound 0.1 µM
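Note: spheroids exposed to compounds for seven days.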
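Throughout, for viability, T/C: 100% = DMSO vehicle control wells.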

Cn1ncnc1[C@H]1c2n[nH]c(=O)c3cc(F)cc(c23)N[C@@H]1c1ccc(F)cc1 + Cc1c(S(C)(=O)=O)c(-c2cc(F)cc(N3CCN(c4ccc(NS(=O)(=O)c5ccc(NC(CCN6CCC(C(=O)OCCCP(=O)(O)O)CC6)CSc6ccccc6)c(S(=O)(=O)C(F)(F)F)c5)cc4)CC3)c2)c(-c2ccc(Cl)cc2)n1C(C)C showed an IC50 (second compound 0.1 µM) of 17.2 nM, an IC50 (second compound 0.316 µM) of 26.4 nM and an IC50 (second compound 1 µM) of 17.2 nM. For the same compound, the IC50 (second compound 3.16 µM) was 21.5 nM, the IC50 (second compound 10 µM) was 28.7 nM and the viability, T/C (second compound 0.1 µM, first compound 0.000316 µM) was 85.5%. The viability, T/C (second compound 0.1 µM, first compound 0.001 µM) was 78.4%, the viability, T/C [1] was 66.3% and the viability, T/C [2] was 53.1%. The viability, T/C [3] was 47.5%, the viability, T/C [4] was 29.1% and the viability, T/C (second compound 0.316 µM, first compound 0.000316 µM) was 105%. It also gave a viability, T/C (second compound 0.316 µM, first compound 0.001 µM) of 77.6%, a viability, T/C [5] of 85.9% and a viability, T/C [6] of 58.5%. For the same compound, the viability, T/C [7] was 54.2%, the viability, T/C [8] was 26.6% and the viability, T/C (second compound 1 µM, first compound 0.000316 µM) was 87.1%. For the same compound, the viability, T/C (second compound 1 µM, first compound 0.001 µM) was 91.1%, the viability, T/C [9] was 78.4% and the viability, T/C [10] was 55.3%. It also gave a viability, T/C [11] of 44.1%, a viability, T/C [12] of 27.9% and a viability, T/C (second compound 3.16 µM, first compound 0.000316 µM) of 88%. For the same compound, the viability, T/C (second compound 3.16 µM, first compound 0.001 µM) was 77.1%, the viability, T/C (second compound 3.16 µM, first compound 0.00316 µM) was 77.8% and the viability, T/C (second compound 3.16 µM, first compound 0.01 µM) was 66.2%. For the same compound, the viability, T/C (second compound 3.16 µM, first compound 0.0316 µM) was 41.5%, the viability, T/C (second compound 3.16 µM, first compound 0.1 µM) was 27.9% and the viability, T/C (second compound 10 µM, first compound 0.000316 µM) was 120%. The viability, T/C (second compound 10 µM, first compound 0.001 µM) was 97.9%, the viability, T/C (second compound 10 µM, first compound 0.00316 µM) was 82.8% and the viability, T/C (second compound 10 µM, first compound 0.01 µM) was 73%. The viability, T/C (second compound 10 µM, first compound 0.0316 µM) was 47.2% and the viability, T/C (second compound 10 µM, first compound 0.1 µM) was 27.9%.

For CCN1CCN(Cc2ccc(Nc3ncc(F)c(-c4cc(F)c5nc(C)n(C(C)C)c5c4)n3)nc2)CC1 + CNC(C)C(=O)NC1CN(S(=O)(=O)c2cccc(S(=O)(=O)N3CCC4CCC(C(=O)NC(c5ccccc5)c5ccccc5)N4C(=O)C(NC(=O)C(C)NC)C3)c2)CCC2CCC(C(=O)NC(c3ccccc3)c3ccccc3)N2C1=O, the IC50 (second compound 0.01 µM) was 207 nM, the IC50 (second compound 0.0316 µM) was > 1000 nM and the IC50 (second compound 0.1 µM) was 742 nM. The IC50 (second compound 0.316 µM) was > 1000 nM, the IC50 (second compound 1 µM) was > 1000 nM and the viability, T/C (second compound 0.01 µM, first compound 0.00316 µM) was 79.9%. The viability, T/C (second compound 0.01 µM, first compound 0.01 µM) was 104%, the viability, T/C (second compound 0.01 µM, first compound 0.0316 µM) was 82.6% and the viability, T/C (second compound 0.01 µM, first compound 0.1 µM) was 56.7%. For the same compound, the viability, T/C (second compound 0.01 µM, first compound 0.316 µM) was 49.2%, the viability, T/C (second compound 0.01 µM, first compound 1 µM) was 26% and the viability, T/C (second compound 0.0316 µM, first compound 0.00316 µM) was 102%. The viability, T/C (second compound 0.0316 µM, first compound 0.01 µM) was 106%, the viability, T/C (second compound 0.0316 µM, first compound 0.0316 µM) was 104% and the viability, T/C (second compound 0.0316 µM, first compound 0.1 µM) was 82.6%. The viability, T/C (second compound 0.0316 µM, first compound 0.316 µM) was 71.6%, the viability, T/C (second compound 0.0316 µM, first compound 1 µM) was 49.9% and the viability, T/C [1] was 115%. It also gave a viability, T/C [2] of 107%, a viability, T/C [3] of 116% and a viability, T/C [4] of 91.4%. It also gave a viability, T/C (second compound 0.1 µM, first compound 0.316 µM) of 71.3%, a viability, T/C (second compound 0.1 µM, first compound 1 µM) of 42.7% and a viability, T/C [5] of 110%. The viability, T/C [6] was 112%, the viability, T/C [7] was 103% and the viability, T/C [8] was 90.8%. The viability, T/C (second compound 0.316 µM, first compound 0.316 µM) was 64.6%, the viability, T/C (second compound 0.316 µM, first compound 1 µM) was 50.3% and the viability, T/C [9] was 112%. The viability, T/C [10] was 112%, the viability, T/C [11] was 111% and the viability, T/C [12] was 87.5%. For the same compound, the viability, T/C (second compound 1 µM, first compound 0.316 µM) was 87.6% and the viability, T/C (second compound 1 µM, first compound 1 µM) was 68.3%.
